# What was measured:
# Assay in all cases: cells
# Assay type in all cases: functional, cell-based, Homo sapiens
# COLO-824 = conditions: Homo sapiens, COLO-824
# Description: SANGER: Inhibition of human COLO-824 cell growth in a cell viability assay.
# CCRF-CEM = conditions: Homo sapiens, CCRF-CEM;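 further: inhibition of CCRF-CEM cell growth, measured by a cell viability assay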
# Description: SANGER: Inhibition of human CCRF-CEM cell growth in a cell viability assay.
# NCI-H1838 = conditions: Homo sapiens, NCI-H1838;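 further: growth inhibition of NCI-H1838 cells, determined with a cell viability readout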
# Description: SANGER: Inhibition of human NCI-H1838 cell growth in a cell viability assay.
# DEL = conditions: Homo sapiens, DEL;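 further: growth inhibition of the human DEL cell line, read out with a cell viability assay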
# Description: SANGER: Inhibition of human DEL cell growth in a cell viability assay.
# J-RT3-T3-5 = conditions: Homo sapiens, J-RT3-T3-5;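 further: cell viability assay measuring growth inhibition of human J-RT3-T3-5 cells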
# Description: SANGER: Inhibition of human J-RT3-T3-5 cell growth in a cell viability assay.
# NCI-H226 = conditions: Homo sapiens, NCI-H226;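 further: cell viability read-out used to gauge growth inhibition of the cells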
# Description: SANGER: Inhibition of human NCI-H226 cell growth in a cell viability assay.
# HC-1 = conditions: Homo sapiens, HC-1;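 further: growth inhibition of HC-1 cells measured by a cell viability assay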
# Description: SANGER: Inhibition of human HC-1 cell growth in a cell viability assay.
# MN-60 = conditions: Homo sapiens, MN-60;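 further: growth inhibition of the MN-60 cell line, determined with a cell viability assay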
# Description: SANGER: Inhibition of human MN-60 cell growth in a cell viability assay.
# TE-6 = conditions: Homo sapiens, TE-6;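 further: growth inhibition of TE-6 cells, read out with a cell viability assay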
# Description: SANGER: Inhibition of human TE-6 cell growth in a cell viability assay.
# NCI-H82 = conditions: Homo sapiens, NCI-H82;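 further: growth inhibition of NCI-H82 cells, measured with a cell viability readout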
# Description: SANGER: Inhibition of human NCI-H82 cell growth in a cell viability assay.
# MMAC-SF = conditions: Homo sapiens, MMAC-SF;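 further: growth inhibition of human MMAC-SF cells, read out with a cell viability assay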
# Description: SANGER: Inhibition of human MMAC-SF cell growth in a cell viability assay.
# QIMR-WIL = conditions: Homo sapiens, QIMR-WIL;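 further: growth inhibition of QIMR-WIL cells, read out with a cell viability assay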
# Description: SANGER: Inhibition of human QIMR-WIL cell growth in a cell viability assay.
# GI-1 = conditions: Homo sapiens, GI-1;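 further: growth inhibition of human GI-1 cells, measured with a cell viability readout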
# Description: SANGER: Inhibition of human GI-1 cell growth in a cell viability assay.
# Becker = conditions: Homo sapiens, Becker;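 further: growth inhibition of Becker cells, read out with a cell viability assay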
# Description: SANGER: Inhibition of human Becker cell growth in a cell viability assay.
# LAMA-84 = conditions: Homo sapiens, LAMA-84;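 further: growth inhibition of LAMA-84 cells, read out with a cell viability assay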
# Description: SANGER: Inhibition of human LAMA-84 cell growth in a cell viability assay.
# C2BBe1 = conditions: Homo sapiens, C2BBe1;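 further: growth inhibition of C2BBe1 cells, read out through a viability assay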
# Description: SANGER: Inhibition of human C2BBe1 cell growth in a cell viability assay.
# NKM-1 = conditions: Homo sapiens, NKM-1;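 further: growth inhibition of NKM-1 cells, read out with a cell viability assay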
# Description: SANGER: Inhibition of human NKM-1 cell growth in a cell viability assay.
# SNU1 = conditions: Homo sapiens, SNU1;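 further: growth inhibition of human NCI-SNU-1 cells, measured with a cell viability assay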
# Description: SANGER: Inhibition of human NCI-SNU-1 cell growth in a cell viability assay.
# EW-13 = conditions: Homo sapiens, EW-13;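 further: growth inhibition of EW-13 cells, read out with a cell viability assay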
# Description: SANGER: Inhibition of human EW-13 cell growth in a cell viability assay.
# K5 = conditions: Homo sapiens, K5
# Description: SANGER: Inhibition of human K5 cell growth in a cell viability assay.
# TGBC24TKB = conditions: Homo sapiens, TGBC24TKB;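 further: growth inhibition of human TGBC24TKB cells, read out with a cell viability assay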
# Description: SANGER: Inhibition of human TGBC24TKB cell growth in a cell viability assay.
# RCC10RGB = conditions: Homo sapiens, RCC10RGB;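 further: growth inhibition of human RCC10RGB cells, read out by a cell viability assay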
# Description: SANGER: Inhibition of human RCC10RGB cell growth in a cell viability assay.
# SNB-75 = conditions: Homo sapiens, SNB-75;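 further: cell viability assay measuring growth inhibition of human SNB-75 cells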
# Description: SANGER: Inhibition of human SNB75 cell growth in a cell viability assay.
# ONS-76 = conditions: Homo sapiens, ONS-76;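 further: growth inhibition of human ONS-76 cells, read out with a cell viability assay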
# Description: SANGER: Inhibition of human ONS-76 cell growth in a cell viability assay.
# BB49-HNC = conditions: Homo sapiens, BB49-HNC;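 further: cell viability assay read-out, reported as inhibition of BB49-HNC cell growth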
# Description: SANGER: Inhibition of human BB49-HNC cell growth in a cell viability assay.
# HCC2218 = conditions: Homo sapiens, HCC2218;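 further: cell viability assay read-out, with IC50 given as the concentration that inhibits growth of the cell line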
# Description: SANGER: Inhibition of human HCC2218 cell growth in a cell viability assay.
# DSH1 = conditions: Homo sapiens, DSH1;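 further: growth inhibition of human DSH1 cells, measured with a cell viability readout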
# Description: SANGER: Inhibition of human DSH1 cell growth in a cell viability assay.
# RPMI-8866 = conditions: Homo sapiens, RPMI-8866
# Description: SANGER: Inhibition of human RPMI-8866 cell growth in a cell viability assay.
# IST-MES1 = conditions: Homo sapiens, IST-MES1;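 further: growth inhibition of IST-MES1 cells, measured with a cell viability assay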
# Description: SANGER: Inhibition of human IST-MES1 cell growth in a cell viability assay.
# NH-12 = conditions: Homo sapiens, NH-12;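 further: growth inhibition of NH-12 cells, read out with a cell viability assay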
# Description: SANGER: Inhibition of human NH-12 cell growth in a cell viability assay.
# GOTO = conditions: Homo sapiens, GOTO;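 further: growth inhibition of GOTO cells, read out by a cell viability assay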
# Description: SANGER: Inhibition of human GOTO cell growth in a cell viability assay.
# no-10 = conditions: Homo sapiens;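 further: growth inhibition of no-10 cells, read out with a cell viability assay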
# Description: SANGER: Inhibition of human no-10 cell growth in a cell viability assay.
# KU812 cell line = conditions: Homo sapiens, KU812;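 further: growth inhibition of KU812 cells, read out with a cell viability assay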
# Description: SANGER: Inhibition of human KU812 cell growth in a cell viability assay.
# NCI-H1355 = conditions: Homo sapiens, NCI-H1355;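 further: growth inhibition of human NCI-H1355 cells, read out by a cell viability assay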
# Description: SANGER: Inhibition of human NCI-H1355 cell growth in a cell viability assay.
# GCIY = conditions: Homo sapiens, GCIY;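 further: growth inhibition of the human GCIY cell line, read out by a cell viability assay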
# Description: SANGER: Inhibition of human GCIY cell growth in a cell viability assay.
# DU-4475 = conditions: Homo sapiens, DU-4475
# Description: SANGER: Inhibition of human DU-4475 cell growth in a cell viability assay.
# KLE = conditions: Homo sapiens, KLE;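 further: growth inhibition of human KLE cells, read out with a cell viability assay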
# Description: SANGER: Inhibition of human KLE cell growth in a cell viability assay.
# NCI-H2126 = conditions: Homo sapiens, NCI-H2126;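 further: growth inhibition of the cancer cell line, determined with a cell viability readout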
# Description: SANGER: Inhibition of human NCI-H2126 cell growth in a cell viability assay.
# IST-SL1 = conditions: Homo sapiens, IST-SL1;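 further: growth inhibition of human IST-SL1 cells, read out with a cell viability assay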
# Description: SANGER: Inhibition of human IST-SL1 cell growth in a cell viability assay.
# OMC-1 = conditions: Homo sapiens, OMC-1;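 further: growth inhibition of the OMC-1 cell line, measured by a cell viability assay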
# Description: SANGER: Inhibition of human OMC-1 cell growth in a cell viability assay.
# SK-LMS-1 = conditions: Homo sapiens, SK-LMS-1;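 further: growth inhibition of human SK-LMS-1 cells, read out with a cell viability assay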
# Description: SANGER: Inhibition of human SK-LMS-1 cell growth in a cell viability assay.
# MZ1-PC = conditions: Homo sapiens, MZ1-PC;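 further: cell viability assay measuring growth inhibition of human MZ1-PC cells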
# Description: SANGER: Inhibition of human MZ1-PC cell growth in a cell viability assay.
# OVCAR-4 = conditions: Homo sapiens, OVCAR-4;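 further: growth inhibition of human OVCAR-4 cells, measured with a cell viability assay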
# Description: SANGER: Inhibition of human OVCAR-4 cell growth in a cell viability assay.
# NCI-H510A = conditions: Homo sapiens, NCI-H510A;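 further: growth inhibition of NCI-H510A cells, read out with a cell viability assay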
# Description: SANGER: Inhibition of human NCI-H510A cell growth in a cell viability assay.
# SF-268 = conditions: Homo sapiens, SF-268;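 further: growth inhibition of SF-268 cells determined with a cell viability assay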
# Description: SANGER: Inhibition of human SF268 cell growth in a cell viability assay.
# LNCaP-Clone-FGC = conditions: Homo sapiens, LNCaP-Clone-FGC
# Description: SANGER: Inhibition of human LNCaP-Clone-FGC cell growth in a cell viability assay.
# NB13 = conditions: Homo sapiens, NB13;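 further: cell viability readout measuring growth inhibition of human NB13 cells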
# Description: SANGER: Inhibition of human NB13 cell growth in a cell viability assay.
# L-428 = conditions: Homo sapiens, L-428
# Description: SANGER: Inhibition of human L-428 cell growth in a cell viability assay.
# KP-N-YS = conditions: Homo sapiens, KP-N-YS;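 further: cell viability assay measuring inhibition of cell line growth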
# Description: SANGER: Inhibition of human KP-N-YS cell growth in a cell viability assay.
smiles,measurement,setting,value
C=C(c1ccc(C(=O)O)cc1)c1cc2c(cc1C)C(C)(C)CCC2(C)C [BEXAROTENE],IC50,COLO-824,> 8 µM
same,IC50,CCRF-CEM,> 8 µM
same,IC50,NCI-H1838,> 8 µM
same,IC50,DEL,> 8 µM
same,IC50,J-RT3-T3-5,> 8 µM
same,IC50,NCI-H226,> 8 µM
same,IC50,HC-1,> 8 µM
same,IC50,MN-60,> 8 µM
same,IC50,TE-6,> 8 µM
same,IC50,NCI-H82,> 8 µM
same,IC50,MMAC-SF,> 8 µM
same,IC50,QIMR-WIL,> 8 µM
same,IC50,GI-1,> 8 µM
same,IC50,Becker,> 8 µM
same,IC50,LAMA-84,> 8 µM
same,IC50,C2BBe1,> 8 µM
same,IC50,NKM-1,> 8 µM
same,IC50,SNU1,> 8 µM
same,IC50,EW-13,0.485 µM
same,IC50,K5,> 8 µM
same,IC50,TGBC24TKB,> 8 µM
same,IC50,RCC10RGB,> 8 µM
same,IC50,SNB-75,> 8 µM
same,IC50,ONS-76,> 8 µM
same,IC50,BB49-HNC,> 8 µM
same,IC50,HCC2218,> 8 µM
same,IC50,DSH1,> 8 µM
same,IC50,RPMI-8866,> 8 µM
same,IC50,IST-MES1,> 8 µM
same,IC50,NH-12,> 8 µM
same,IC50,GOTO,> 8 µM
same,IC50,no-10,> 8 µM
same,IC50,KU812 cell line,> 8 µM
same,IC50,NCI-H1355,> 8 µM
same,IC50,GCIY,> 8 µM
same,IC50,DU-4475,> 8 µM
same,IC50,KLE,> 8 µM
same,IC50,NCI-H2126,> 8 µM
same,IC50,IST-SL1,> 8 µM
same,IC50,OMC-1,> 8 µM
same,IC50,SK-LMS-1,7.62 µM
same,IC50,MZ1-PC,> 8 µM
same,IC50,OVCAR-4,> 8 µM
same,IC50,NCI-H510A,> 8 µM
same,IC50,SF-268,> 8 µM
same,IC50,LNCaP-Clone-FGC,> 8 µM
same,IC50,NB13,> 8 µM
same,IC50,L-428,> 8 µM
Nc1ccn([C@@H]2O[C@H](CO)[C@@H](O)C2(F)F)c(=O)n1 [GEMCITABINE],IC50,COLO-824,> 1.02 µM
same,IC50,CCRF-CEM,0.0188 µM
same,IC50,NCI-H1838,> 1.02 µM
same,IC50,DEL,< 0.004 µM
same,IC50,J-RT3-T3-5,0.0672 µM
same,IC50,NCI-H226,0.317 µM
same,IC50,HC-1,< 0.004 µM
same,IC50,MN-60,> 1.02 µM
same,IC50,TE-6,0.25 µM
same,IC50,NCI-H82,0.373 µM
same,IC50,MMAC-SF,> 1.02 µM
same,IC50,QIMR-WIL,< 0.004 µM
same,IC50,GI-1,0.00276 µM
same,IC50,Becker,0.267 µM
same,IC50,LAMA-84,0.115 µM
same,IC50,C2BBe1,> 1.02 µM
same,IC50,NKM-1,< 0.004 µM
same,IC50,SNU1,< 0.004 µM
same,IC50,EW-13,< 0.004 µM
same,IC50,K5,0.683 µM
same,IC50,TGBC24TKB,> 1.02 µM
same,IC50,RCC10RGB,0.634 µM
same,IC50,SNB-75,0.0372 µM
same,IC50,ONS-76,0.00868 µM
same,IC50,BB49-HNC,> 1.02 µM
same,IC50,HCC2218,> 1.02 µM
same,IC50,DSH1,0.0965 µM
same,IC50,RPMI-8866,0.0952 µM
same,IC50,IST-MES1,0.774 µM
same,IC50,NH-12,0.0255 µM
same,IC50,GOTO,> 1.02 µM
same,IC50,no-10,0.174 µM
same,IC50,KU812 cell line,0.00191 µM
same,IC50,NCI-H1355,< 0.004 µM
same,IC50,GCIY,0.0927 µM
same,IC50,DU-4475,0.00314 µM
same,IC50,KLE,0.459 µM
same,IC50,NCI-H2126,> 1.02 µM
same,IC50,IST-SL1,0.197 µM
same,IC50,OMC-1,0.583 µM
same,IC50,SK-LMS-1,< 0.004 µM
same,IC50,MZ1-PC,0.254 µM
same,IC50,OVCAR-4,0.625 µM
same,IC50,NCI-H510A,0.0333 µM
same,IC50,SF-268,< 0.004 µM
same,IC50,LNCaP-Clone-FGC,> 1.02 µM
same,IC50,NB13,0.0382 µM
same,IC50,L-428,0.0236 µM
CC[C@H](CO)Nc1nc(NCc2ccccc2)c2ncn(C(C)C)c2n1 [SELICICLIB],IC50,COLO-824,> 16 µM
same,IC50,CCRF-CEM,> 16 µM
same,IC50,NCI-H1838,> 16 µM
same,IC50,DEL,> 16 µM
same,IC50,J-RT3-T3-5,> 16 µM
same,IC50,NCI-H226,> 16 µM
same,IC50,HC-1,> 16 µM
same,IC50,MN-60,> 16 µM
same,IC50,TE-6,> 16 µM
same,IC50,NCI-H82,> 16 µM
same,IC50,MMAC-SF,> 16 µM
same,IC50,QIMR-WIL,> 16 µM
same,IC50,GI-1,> 16 µM
same,IC50,Becker,9.46 µM
same,IC50,LAMA-84,> 16 µM
same,IC50,C2BBe1,> 16 µM
same,IC50,NKM-1,> 16 µM
same,IC50,SNU1,> 16 µM
same,IC50,EW-13,> 16 µM
same,IC50,K5,> 16 µM
same,IC50,RCC10RGB,> 16 µM
same,IC50,SNB-75,> 16 µM
same,IC50,ONS-76,> 16 µM
same,IC50,BB49-HNC,> 16 µM
same,IC50,HCC2218,> 16 µM
same,IC50,DSH1,> 16 µM
same,IC50,RPMI-8866,> 16 µM
same,IC50,IST-MES1,> 16 µM
same,IC50,NH-12,> 16 µM
same,IC50,GOTO,> 16 µM
same,IC50,no-10,> 16 µM
same,IC50,KP-N-YS,> 16 µM
same,IC50,KU812 cell line,> 16 µM
same,IC50,NCI-H1355,> 16 µM
same,IC50,GCIY,12.9 µM
same,IC50,DU-4475,> 16 µM
same,IC50,NCI-H2126,> 16 µM
same,IC50,IST-SL1,> 16 µM
same,IC50,OMC-1,> 16 µM
same,IC50,SK-LMS-1,> 16 µM
same,IC50,MZ1-PC,> 16 µM
same,IC50,OVCAR-4,> 16 µM
same,IC50,NCI-H510A,> 16 µM
same,IC50,SF-268,> 16 µM
same,IC50,LNCaP-Clone-FGC,> 16 µM
same,IC50,NB13,> 16 µM
same,IC50,L-428,> 16 µM
